The record followed here is patent US9492471B2, “Methods of treating a disease or disorder associated with Bruton'S Tyrosine Kinase” (Celgene Avilomics Research, Inc., priority 2013, dated 2016).

Structures are written as SMILES. Read-outs that look alike come from different tables or passages of the source.

Holding throughout (assay): HotSpot kinase profiling
Assay type in all cases: biochemical

For one assay, the target named is T1, IKKe/IKBKE (Homo sapiens, UniProt Q14164).
T1 construct: purchased Reaction Biology Corp
T1 sequence (Q14164 1-716): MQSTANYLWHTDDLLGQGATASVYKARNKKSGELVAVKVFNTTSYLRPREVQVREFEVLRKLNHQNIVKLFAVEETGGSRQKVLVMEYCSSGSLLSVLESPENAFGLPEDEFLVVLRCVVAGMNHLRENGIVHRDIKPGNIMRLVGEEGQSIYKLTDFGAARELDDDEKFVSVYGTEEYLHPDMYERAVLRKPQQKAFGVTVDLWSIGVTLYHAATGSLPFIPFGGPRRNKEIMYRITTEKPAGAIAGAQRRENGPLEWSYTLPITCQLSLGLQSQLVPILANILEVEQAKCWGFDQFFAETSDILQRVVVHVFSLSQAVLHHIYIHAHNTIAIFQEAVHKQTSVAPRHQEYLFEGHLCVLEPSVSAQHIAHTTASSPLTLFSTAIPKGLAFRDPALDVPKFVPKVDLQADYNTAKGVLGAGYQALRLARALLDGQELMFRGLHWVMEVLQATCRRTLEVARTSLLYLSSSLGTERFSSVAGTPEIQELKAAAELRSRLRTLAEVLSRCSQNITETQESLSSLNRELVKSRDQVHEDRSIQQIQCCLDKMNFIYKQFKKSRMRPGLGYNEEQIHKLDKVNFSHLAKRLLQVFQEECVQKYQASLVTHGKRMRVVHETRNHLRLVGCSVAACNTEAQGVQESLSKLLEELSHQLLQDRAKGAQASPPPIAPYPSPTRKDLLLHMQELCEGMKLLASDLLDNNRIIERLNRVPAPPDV
The method in brief:
(§1)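 Radio-isotope P81 filtration format. Substrate + required cofactors in reaction buffer, kinase added, 2 h RT. Stop, wash with 0.1% phosphoric acid, detect. % inhibition vs DMSO; mean of duplicates where repeated.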

For a further assay, the target named is T2, Btk (Homo sapiens, UniProt Q06187).
T2 construct: purchased Reaction Biology Corp
Put shortly: as §1

A further assay has as its target T3, ITK (Homo sapiens, UniProt Q08881).
T3 construct: purchased Reaction Biology Corp
T3 sequence (Q08881 1-620): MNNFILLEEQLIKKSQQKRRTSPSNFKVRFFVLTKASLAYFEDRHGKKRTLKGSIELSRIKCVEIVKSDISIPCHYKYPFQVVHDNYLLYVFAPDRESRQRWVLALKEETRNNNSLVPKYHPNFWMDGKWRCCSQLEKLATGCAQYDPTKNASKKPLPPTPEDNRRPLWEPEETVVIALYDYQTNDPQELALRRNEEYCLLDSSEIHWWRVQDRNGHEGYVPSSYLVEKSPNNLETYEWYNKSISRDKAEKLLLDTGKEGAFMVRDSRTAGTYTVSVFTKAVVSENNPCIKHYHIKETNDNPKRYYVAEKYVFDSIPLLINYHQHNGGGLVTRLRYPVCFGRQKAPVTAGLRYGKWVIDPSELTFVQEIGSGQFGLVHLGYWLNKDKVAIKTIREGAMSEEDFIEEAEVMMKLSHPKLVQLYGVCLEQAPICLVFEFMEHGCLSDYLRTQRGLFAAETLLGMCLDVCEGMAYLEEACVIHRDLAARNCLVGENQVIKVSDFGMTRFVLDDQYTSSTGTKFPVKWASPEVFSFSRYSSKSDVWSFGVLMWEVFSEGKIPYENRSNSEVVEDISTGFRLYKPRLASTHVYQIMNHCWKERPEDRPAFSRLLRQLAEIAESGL
Put shortly:
as §1

A further assay concerns the target T4, MLCK2/MYLK2 (Homo sapiens, UniProt Q9H1R3).
T4 construct: purchased Reaction Biology Corp
Put shortly:
as §1

The next assay has as its target T5, CHK2 (Homo sapiens, UniProt O96017).
T5 construct: purchased Reaction Biology Corp
The method in brief: as §1

The next assay deals with T6, PRKX (Homo sapiens, UniProt P51817).
T6 construct: purchased Reaction Biology Corp
T6 sequence (P51817 1-358): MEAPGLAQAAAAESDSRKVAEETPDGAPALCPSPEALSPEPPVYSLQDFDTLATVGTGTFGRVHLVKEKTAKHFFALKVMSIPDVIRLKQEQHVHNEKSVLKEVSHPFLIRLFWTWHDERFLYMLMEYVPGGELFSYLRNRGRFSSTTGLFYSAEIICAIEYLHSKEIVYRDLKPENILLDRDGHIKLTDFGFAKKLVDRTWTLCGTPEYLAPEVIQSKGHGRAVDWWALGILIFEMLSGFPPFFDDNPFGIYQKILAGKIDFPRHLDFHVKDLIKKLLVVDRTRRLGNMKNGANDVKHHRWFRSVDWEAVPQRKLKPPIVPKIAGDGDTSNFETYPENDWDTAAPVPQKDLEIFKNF
The method in brief:
as §1

The target of another assay is T7, CDK5/p25 (Homo sapiens, UniProt Q00535).
T7 construct: purchased Reaction Biology Corp
The method in brief:
as §1

Setting [1] is: read-out: % Enzyme Activity (relative to DMSO controls) Run 1.
Where [2] appears, read: read-out: % Enzyme Activity (relative to DMSO controls) Run 2.

T2 sequence (Q06187 whole entry): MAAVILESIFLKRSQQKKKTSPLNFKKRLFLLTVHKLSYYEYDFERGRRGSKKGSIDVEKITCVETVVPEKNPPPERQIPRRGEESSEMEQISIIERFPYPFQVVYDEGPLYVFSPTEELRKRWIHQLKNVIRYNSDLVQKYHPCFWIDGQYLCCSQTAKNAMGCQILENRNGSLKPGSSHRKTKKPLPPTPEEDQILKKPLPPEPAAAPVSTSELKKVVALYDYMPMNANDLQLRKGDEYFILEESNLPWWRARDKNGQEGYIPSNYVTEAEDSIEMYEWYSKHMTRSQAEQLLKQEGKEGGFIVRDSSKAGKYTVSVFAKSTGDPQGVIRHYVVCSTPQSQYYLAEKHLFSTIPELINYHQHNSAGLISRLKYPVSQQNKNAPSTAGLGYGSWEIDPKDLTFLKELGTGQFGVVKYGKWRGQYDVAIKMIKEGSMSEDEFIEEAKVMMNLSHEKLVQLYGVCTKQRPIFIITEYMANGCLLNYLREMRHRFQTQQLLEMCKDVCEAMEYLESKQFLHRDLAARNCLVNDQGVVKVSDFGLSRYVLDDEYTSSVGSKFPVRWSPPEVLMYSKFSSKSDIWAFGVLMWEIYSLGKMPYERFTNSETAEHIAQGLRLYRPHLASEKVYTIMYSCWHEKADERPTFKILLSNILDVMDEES
T7 sequence (Q00535 whole entry): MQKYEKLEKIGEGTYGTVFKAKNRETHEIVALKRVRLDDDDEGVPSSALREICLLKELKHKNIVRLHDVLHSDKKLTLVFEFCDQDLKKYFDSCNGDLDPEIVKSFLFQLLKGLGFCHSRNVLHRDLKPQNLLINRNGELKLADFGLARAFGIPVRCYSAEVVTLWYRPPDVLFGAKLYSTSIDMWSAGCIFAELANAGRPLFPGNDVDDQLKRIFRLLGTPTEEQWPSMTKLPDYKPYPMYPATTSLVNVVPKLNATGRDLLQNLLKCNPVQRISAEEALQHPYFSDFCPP
T7 sequence (Q15078 99-307 partner limits assumed): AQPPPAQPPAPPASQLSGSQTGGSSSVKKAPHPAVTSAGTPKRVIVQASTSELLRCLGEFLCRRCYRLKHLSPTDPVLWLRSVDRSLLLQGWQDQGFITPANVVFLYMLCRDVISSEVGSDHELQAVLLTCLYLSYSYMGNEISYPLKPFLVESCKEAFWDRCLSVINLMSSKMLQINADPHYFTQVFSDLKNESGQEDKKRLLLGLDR
T5 sequence (O96017 whole entry): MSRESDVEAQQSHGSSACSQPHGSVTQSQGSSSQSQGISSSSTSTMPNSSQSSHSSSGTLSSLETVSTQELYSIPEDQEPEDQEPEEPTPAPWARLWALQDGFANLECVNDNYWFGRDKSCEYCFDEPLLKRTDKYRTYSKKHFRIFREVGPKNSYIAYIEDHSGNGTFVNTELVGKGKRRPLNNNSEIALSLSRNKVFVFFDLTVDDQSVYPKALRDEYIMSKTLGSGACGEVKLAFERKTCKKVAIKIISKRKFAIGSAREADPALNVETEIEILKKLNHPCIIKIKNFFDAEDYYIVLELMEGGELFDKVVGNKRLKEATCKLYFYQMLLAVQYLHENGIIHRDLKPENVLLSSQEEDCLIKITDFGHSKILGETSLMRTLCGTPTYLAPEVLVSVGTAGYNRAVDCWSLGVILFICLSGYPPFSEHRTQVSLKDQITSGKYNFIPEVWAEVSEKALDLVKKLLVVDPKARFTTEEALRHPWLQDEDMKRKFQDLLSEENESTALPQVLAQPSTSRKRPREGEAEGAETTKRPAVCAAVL

`C=CC(=O)Nc1cccc(Nc2nc(Nc3ccc(OCCOC)c(F)c3)ncc2F)c1` [Compound 2]: the inhibition (usually the change of the read-out against control, counted positive when it falls) at 3 µM against IKKe/IKBKE stood at 21.8%; against Btk, 95.5%; at ITK it was 92%; on MLCK2/MYLK2, 30.1%; against CHK2, 74.4%; against PRKX, 1.8%. In addition, the inhibition at 3 µM against CDK5/p25 came out at 9.1%. Moreover, the remaining activity at 3 µM at IKKe/IKBKE (setting [1]) worked out at 78.3%; on IKKe/IKBKE (setting [2]), 78.2%; on Btk (setting [1]), 3.69%; at Btk (setting [2]), 5.4%; at ITK (setting [1]) it was 7.97%; at ITK (setting [2]), 7.95%. In addition, the remaining activity at 3 µM on MLCK2/MYLK2 (setting [1]) was 71.6%; on MLCK2/MYLK2 (setting [2]) it was 68.1%; on CHK2 (setting [1]) it was 25.9%; at CHK2 (setting [2]) it was 25.3%; at PRKX (setting [1]) it was 97.9%; on PRKX (setting [2]) it was 98.5%. In addition, the results for the remaining activity at 3 µM at CDK5/p25 (setting [1]) and at CDK5/p25 (setting [2]) were 89.5% and 92.3%, respectively.
